The supplement of paper PMC10883282

How the values were obtained:
Experiment in all cases: relative viability vs DMSO control (72 h) (fraction); higher = more viable cells
G401 = test system: G401
Summary of the method: (§1)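 Densities for seeding sarcoma cell lines into 384-well plates were set to give 80–90% confluence. After 24 h, 2.5 µl of serially diluted compound from source plates of 10 mM to 0.0002 mM went in, and plates stayed 72 h at 37 °C in 5% CO2 with 0.1% DMSO vehicle and a 5 µM positive control. Percent growth from ATPLite readings, averaged over up to triplicate wells, served as relative viability, rescaled so 1 means full and 0 means none.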

HT1080 = test system: HT1080
Summary of the method: as §1

KHOS-NP = test system: KHOS-NP
Summary of the method: as §1

MES-SA = test system: MES-SA
Summary of the method: as §1

RD-ES = test system: RD-ES
Summary of the method: as §1

RD = test system: RD
Summary of the method: as §1

SK-ES-1 = test system: SK-ES-1
Summary of the method: as §1

SK-LMS-1 = test system: SK-LMS-1
Summary of the method: as §1

SW1353 = test system: SW1353
Summary of the method: as §1

SW684 = test system: SW684
Summary of the method: as §1

SW872 = test system: SW872
Summary of the method: as §1

VA-ES-BJ = test system: VA-ES-BJ
Summary of the method: as §1

CCc1cnn2c(NCc3ccc[n+]([O-])c3)cc(N3CCCC[C@H]3CCO)nc12 [Dinaciclib]
Conditions	relative viability
G401, 0.00017 µM	0.997
G401, 0.00051 µM	0.974
G401, 0.00152 µM	0.989
G401, 0.00457 µM	0.915
G401, 0.01372 µM	0.46
G401, 0.04115 µM	0.089
G401, 0.1235 µM	0.0853
G401, 0.3704 µM	0.0974
G401, 1.111 µM	0.0916
G401, 3.333 µM	0.0843
G401, 10 µM	0.072
HT1080, 0.00017 µM	1.04
HT1080, 0.00051 µM	1.04
HT1080, 0.00152 µM	1.04
HT1080, 0.00457 µM	1.09
HT1080, 0.01372 µM	0.792
HT1080, 0.04115 µM	0.193
HT1080, 0.1235 µM	0.208
HT1080, 0.3704 µM	0.209
HT1080, 1.111 µM	0.202
HT1080, 3.333 µM	0.216
HT1080, 10 µM	0.219
KHOS-NP, 0.00017 µM	1.03
KHOS-NP, 0.00051 µM	1.05
KHOS-NP, 0.00152 µM	1.06
KHOS-NP, 0.00457 µM	1.07
KHOS-NP, 0.01372 µM	0.836
KHOS-NP, 0.04115 µM	0.183
KHOS-NP, 0.1235 µM	0.153
KHOS-NP, 0.3704 µM	0.163
KHOS-NP, 1.111 µM	0.164
KHOS-NP, 3.333 µM	0.162
KHOS-NP, 10 µM	0.137
MES-SA, 0.00017 µM	0.994
MES-SA, 0.00051 µM	1.04
MES-SA, 0.00152 µM	0.957
MES-SA, 0.00457 µM	0.912
MES-SA, 0.01372 µM	0.383
MES-SA, 0.04115 µM	0.0374
MES-SA, 0.1235 µM	0.0354
MES-SA, 0.3704 µM	0.0357
MES-SA, 1.111 µM	0.0288
MES-SA, 3.333 µM	0.0272
MES-SA, 10 µM	0.0262
RD, 0.00017 µM	0.828
RD, 0.00051 µM	0.851
RD, 0.00152 µM	0.821
RD, 0.00457 µM	0.736
RD, 0.01372 µM	0.504
RD, 0.04115 µM	0.163
RD, 0.1235 µM	0.162
RD, 0.3704 µM	0.137
RD, 1.111 µM	0.119
RD, 3.333 µM	0.103
RD, 10 µM	0.0835
RD-ES, 0.00017 µM	0.937
RD-ES, 0.00051 µM	0.916
RD-ES, 0.00152 µM	0.912
RD-ES, 0.00457 µM	0.886
RD-ES, 0.01372 µM	0.612
RD-ES, 0.04115 µM	0.0429
RD-ES, 0.1235 µM	0.0102
RD-ES, 0.3704 µM	0.00417
RD-ES, 1.111 µM	0.0013
RD-ES, 3.333 µM	-0.0014
RD-ES, 10 µM	-0.00263
SK-ES-1, 0.00017 µM	0.939
SK-ES-1, 0.00051 µM	1
SK-ES-1, 0.00152 µM	0.939
SK-ES-1, 0.00457 µM	0.79
SK-ES-1, 0.01372 µM	0.411
SK-ES-1, 0.04115 µM	0.0163
SK-ES-1, 0.1235 µM	0.0154
SK-ES-1, 0.3704 µM	0.00863
SK-ES-1, 1.111 µM	0.00557
SK-ES-1, 3.333 µM	0.000967
SK-ES-1, 10 µM	-0.000867
SK-LMS-1, 0.00017 µM	1.06
SK-LMS-1, 0.00051 µM	1.05
SK-LMS-1, 0.00152 µM	1.07
SK-LMS-1, 0.00457 µM	1.03
SK-LMS-1, 0.01372 µM	0.817
SK-LMS-1, 0.04115 µM	0.325
SK-LMS-1, 0.1235 µM	0.309
SK-LMS-1, 0.3704 µM	0.333
SK-LMS-1, 1.111 µM	0.341
SK-LMS-1, 3.333 µM	0.34
SK-LMS-1, 10 µM	0.353
SW684, 0.00017 µM	0.96
SW684, 0.00051 µM	1.01
SW684, 0.00152 µM	1.02
SW684, 0.00457 µM	0.964
SW684, 0.01372 µM	0.669
SW684, 0.04115 µM	0.713
SW684, 0.1235 µM	0.71
SW684, 0.3704 µM	0.713
SW684, 1.111 µM	0.689
SW684, 3.333 µM	0.7
SW684, 10 µM	0.71
SW872, 0.00017 µM	1.01
SW872, 0.00051 µM	1.01
SW872, 0.00152 µM	1.01
SW872, 0.00457 µM	1.03
SW872, 0.01372 µM	0.947
SW872, 0.04115 µM	0.412
SW872, 0.1235 µM	0.279
SW872, 0.3704 µM	0.268
SW872, 1.111 µM	0.259
SW872, 3.333 µM	0.256
SW872, 10 µM	0.245
SW1353, 0.00017 µM	1.05
SW1353, 0.00051 µM	1.08
SW1353, 0.00152 µM	1.07
SW1353, 0.00457 µM	1.07
SW1353, 0.01372 µM	0.944
SW1353, 0.04115 µM	0.238
SW1353, 0.1235 µM	0.238
SW1353, 0.3704 µM	0.242
SW1353, 1.111 µM	0.235
SW1353, 3.333 µM	0.234
SW1353, 10 µM	0.219
VA-ES-BJ, 0.00017 µM	0.994
VA-ES-BJ, 0.00051 µM	1.011
VA-ES-BJ, 0.00152 µM	1.03
VA-ES-BJ, 0.00457 µM	0.94
VA-ES-BJ, 0.01372 µM	0.269
VA-ES-BJ, 0.04115 µM	0.222
VA-ES-BJ, 0.1235 µM	0.227
VA-ES-BJ, 0.3704 µM	0.255
VA-ES-BJ, 1.111 µM	0.245
VA-ES-BJ, 3.333 µM	0.253
VA-ES-BJ, 10 µM	0.247
